Like-named read-outs stand apart in the source and are kept apart here.
Assay: Multi-component pharmacokinetic study of GQD, GQD-GC and single herb extracts in rats (plasma, LC/MS/MS)
Format: in vivo, Sprague-Dawley rats
Details: for AUC(0-t) / Cmax / half-life / Tmax: male, Sprague-Dawley, rat; for bioavailability in the GQD group compared with the Ge-Gen group: rats, oral
Experimental: Male Sprague-Dawley rats (220–250 g) were used for PK study, and the details were described in Supplemental Data. All procedures were in accordance with the National Institutes of Health Guide for the Care and Use of Laboratory Animals.
For PK study of GQD and its component herbs, rats were randomly divided into six groups (n = 10 for each group) before oral administration.
All blood samples were immediately centrifuged at 6,000 rpm (4°C) for 20 min to obtain plasma. The plasma samples were stored at −80°C.
A Finnigan TSQ Quantum triple quadrupole mass spectrometer was connected to a Surveyor HPLC via ESI interface (ThermoFisher). High purity nitrogen was used as the sheath and auxiliary gas; Ultra-high purity argon was used as the collision gas (1.5 mTorr). Q1 and Q3 quadrupoles were set at unit resolution. […] The column temperature was 40°C. The mobile phase consisted of acetonitrile containing 2% (v/v) methanol (A) and water containing 0.1% (v/v) formic acid (B). […] An aliquot of 5 μL was injected for analysis. UV spectra were obtained by scanning from 200 to 400 nm. The mass spectrometer was operated in the (+)-ESI mode. The optimized parameters were as follows: sheath gas (N2), 50 arb; auxiliary gas (N2), 5 arb; spray voltage, 4.0 kV; capillary temperature, 330°C; collision energy, see Table S1. Analytes were detected in the selected reaction monitoring (SRM) mode. Data were processed by Xcalibur 2.0.7 software (ThermoFisher).
LC/MS/MS calibration and quantitation data were processed with Xcalibur 2.0.7 software (ThermoFisher). The maximal plasma concentrations (Cmax) and their time of occurrence (Tmax) were obtained directly from the measured data. Other pharmacokinetic parameters were calculated by non-compartment or compartment models using WinNonlin® software (v6.1, Pharsight). Unless otherwise stated, results were expressed as the mean ± SD. Statistical significance in differences of the means was determined by Student's t–test, with a significance level of P < 0.05.
Herbal materials and extracts.
The four component herbs, Puerariae Lobatae Radix (Ge-Gen, GG), Scutellariae Radix (Huang-Qin, HQ), Coptidis Rhizoma (Huang-Lian, HL), and Glycyrrhizae Radix et Rhizoma Praeparata cum Melle (Gan-Cao, GC) were purchased from Tianheng Pharmacy. GQD was prepared by decocting the four component herbs […]
pre-extraction of Ge-Gen using 200 mL of water for 0.5 h. The decoctions were combined, filtered, and concentrated in vacuum at 50 °C. GQD-GC was prepared using the same procedure, except that Gan-Cao was removed from the formula. Final concentration of the GQD-GC extract was equivalent to 1.0 g of the crude drugs per mL. For single herb extracts, the herbs were decocted in 8-fold volume of water for […]
Final concentrations of the extracts were 1.0 g/mL for Ge-Gen, and 0.5 g/mL for Huang-Qin, Huang-Lian and […]
For pharmacokinetic study, Male Sprague-Dawley rats (220-250 g) were obtained from the Laboratory Animal Center of Peking University Health Science Center. The […]
The rats had free access to tap water and soy-free custom diet (Ke’ao Xieli Co.). All procedures were in accordance with the National Institutes of Health Guide for the Care and Use of Laboratory Animals […]
Experimental details for the PK study
1. Preparation of internal standard solution, calibration standard solutions, and quality control solutions […]
internal standard solution. Reference standard compounds were dissolved in the internal standard solution to prepare individual stock solutions (1.0 mg/mL). These […]
each compound. The standard solution was then serially diluted to obtain calibration […]
Quality control stock solutions were prepared at three concentration levels as high QC (HQC), middle QC (MQC), and low QC (LQC), based on linear ranges of the analytes.
2.1. Sample preparation for pharmacokinetic study
The calibration standard and quality control solutions for pharmacokinetic study were […]

[1] = in vivo, GG (Ge-Gen) group: rats, oral extract 9.45 g/kg, plasma, read-out: Tmax
[2] = in vivo, GQD group: rats, oral GQD extract 18.9 g/kg, plasma, read-out: Tmax
[3] = in vivo, GQD-GC group (GQD without Gan-Cao): rats, oral 16.5 g/kg, plasma, read-out: Tmax
[4] = plasma, po, 9.45 g/kg, GG (Ge-Gen) group: rats, oral extract 9.45 g/kg, plasma, read-out: AUClast
[5] = plasma, po, 16.5 g/kg, GQD-GC group (GQD without Gan-Cao): rats, oral 16.5 g/kg, plasma, read-out: AUClast
[6] = plasma, po, 18.9 g/kg, GQD group: rats, oral GQD extract 18.9 g/kg, plasma, read-out: AUClast
[7] = GG (Ge-Gen) group: rats, oral extract 9.45 g/kg, plasma, read-out: Cmax
[8] = GG (Ge-Gen) group: rats, oral extract 9.45 g/kg, plasma, read-out: T1/2 (converted)
[9] = GG (Ge-Gen) group: rats, oral extract 9.45 g/kg, plasma, read-out: Tmax
[10] = GQD group: rats, oral GQD extract 18.9 g/kg, plasma, read-out: Cmax
[11] = GQD group: rats, oral GQD extract 18.9 g/kg, plasma, read-out: T1/2 (converted)
[12] = GQD group: rats, oral GQD extract 18.9 g/kg, plasma, read-out: Tmax
[13] = GQD-GC group (GQD without Gan-Cao): rats, oral 16.5 g/kg, plasma, read-out: Cmax
[14] = GQD-GC group (GQD without Gan-Cao): rats, oral 16.5 g/kg, plasma, read-out: T1/2 (converted)
[15] = GQD-GC group (GQD without Gan-Cao): rats, oral 16.5 g/kg, plasma, read-out: Tmax
[16] = plasma, po, 3.54 g/kg, HQ (Huang-Qin) group: rats, oral extract 3.54 g/kg, plasma, read-out: AUClast
[17] = HQ (Huang-Qin) group: rats, oral extract 3.54 g/kg, plasma, read-out: Cmax
[18] = HQ (Huang-Qin) group: rats, oral extract 3.54 g/kg, plasma, read-out: T1/2 (converted)
[19] = HQ (Huang-Qin) group: rats, oral extract 3.54 g/kg, plasma, read-out: Tmax

Row | Structure (SMILES) | bioavailability in the GQD group compared with the Ge-Gen group | AUC(0-t) [4] [ng·h/mL] | AUC(0-t) [5] [ng·h/mL] | AUC(0-t) [6] [ng·h/mL] | Cmax [7] [ng/mL] | half-life [8] [h] | Tmax [9] [h] | Cmax [10] [ng/mL] | half-life [11] [h] | Tmax [12] [h] | Cmax [13] [ng/mL] | half-life [14] [h] | Tmax [15] [h] | other results
1 | O=c1c(-c2ccc(O)cc2)coc2cc(O[C@@H]3O[C@H](CO)[C@@H](O)[C@H](O)[C@H]3O)ccc12 [Compound 1, Daidzin] | higher |  |  |  |  |  |  |  |  |  |  |  |  | AUC(0-t) (in vivo, po, 9.45 g/kg, GG (Ge-Gen) group: rats, oral extract 9.45 g/kg, plasma, read-out: AUClast): 290 ± 42.2 ng·h/mL; AUC(0-t) (in vivo, po, 9.45 g/kg, Ge-Gen group: rats, oral 9.45 g/kg, plasma, read-out: AUClast): 290 ± 42.2 ng·h/mL; AUC(0-t) (in vivo, po, 16.5 g/kg, GQD-GC group (GQD without Gan-Cao): rats, oral 16.5 g/kg, plasma, read-out: AUClast): 282 ± 61.6 ng·h/mL; AUC(0-t) (in vivo, po, 18.9 g/kg, GQD group: rats, oral GQD extract 18.9 g/kg, plasma, read-out: AUClast): 346 ± 30.3 ng·h/mL; AUC(0-t) (in vivo, po, 18.9 g/kg, GQD group: rats, oral GQD 18.9 g/kg (1.5-fold of clinical dosage), plasma, read-out: AUClast): > 300 ng·h/mL; Cmax (in vivo, GG (Ge-Gen) group: rats, oral extract 9.45 g/kg, plasma, read-out: Cmax): 58 ± 0.77 ng/mL; half-life (in vivo, GG (Ge-Gen) group: rats, oral extract 9.45 g/kg, plasma, read-out: T1/2 (converted)): 0.74 ± 0.33 h; Tmax [1]: 0.38 ± 0.04 h; Cmax (in vivo, GQD group: rats, oral GQD extract 18.9 g/kg, plasma, read-out: Cmax): 27.4 ± 3.34 ng/mL; half-life (in vivo, GQD group: rats, oral GQD extract 18.9 g/kg, plasma, read-out: T1/2 (converted)): 3.96 ± 1.02 h; Tmax [2]: 0.88 ± 0.11 h; Cmax (in vivo, GQD-GC group (GQD without Gan-Cao): rats, oral 16.5 g/kg, plasma, read-out: Cmax): 52.4 ± 2.21 ng/mL; half-life (in vivo, GQD-GC group (GQD without Gan-Cao): rats, oral 16.5 g/kg, plasma, read-out: T1/2 (converted)): 1.63 ± 0.14 h; Tmax [3]: 0.58 ± 0.24 h
2 | O=c1c(-c2ccc(O)cc2)coc2cc(O)ccc12 [Compound 3, daidzein] |  |  |  |  |  |  |  |  |  |  |  |  |  | Cmax (in vivo, po, 9.45 g/kg): 188 ± 10.4 ng/mL; half-life (in vivo, po, 9.45 g/kg): 5.12 ± 0.87 h; AUC(0-t) (in vivo, po, 9.45 g/kg, AUClast): 2640 ± 1150 ng·h/mL; Cmax (in vivo, po, 16.5 g/kg): 83.5 ± 3.23 ng/mL; half-life (in vivo, po, 16.5 g/kg): 4.28 ± 1.47 h; AUC(0-t) (in vivo, po, 16.5 g/kg, AUClast): 674 ± 604 ng·h/mL; Cmax (in vivo, po, 18.9 g/kg): 186 ± 36.2 ng/mL; half-life (in vivo, po, 18.9 g/kg): 6.23 ± 1.36 h; AUC(0-t) (in vivo, po, 18.9 g/kg, AUClast): 3050 ± 998 ng·h/mL; Tmax [1]: 8 ± 0.14 h; Tmax [2]: 8 ± 12.8 h; Tmax [3]: 0.25 ± 0.32 h
3 | O=c1c(-c2ccc(O)cc2)coc2cc(O[C@@H]3O[C@H](CO)[C@@H](O)[C@H](O)[C@H]3O)cc(O)c12 [Compound 4, genistin] | higher | 51.7 ± 24.2 | 88.2 ± 24.3 | 72.6 ± 15.2 | 3.09 ± 1.99 | 6.88 ± 5.23 | 1 ± 2.31 | 4.97 ± 1.11 | 6.93 ± 0.73 | 1.04 ± 0.78 | 8.08 ± 3.19 | 8.17 ± 2.43 | 1.04 ± 0.75 | 
4 | COc1ccc(-c2coc3c(C4OC(COC5OCC(O)(CO)C5O)C(O)C(O)C4O)c(O)ccc3c2=O)cc1 (stereo not shown) [Compound 5, formononetin 8-C-apiofuranosyl(1,6)glucoside] | higher | 85 ± 19.2 | 26 ± 7.29 | 168 ± 83.3 | 18.4 ± 5.1 | 8.98 ± 2.34 | 0.39 ± 0.17 | 16 ± 5.44 | 7.03 ± 2.31 | 0.76 ± 3.76 | 6.87 ± 2.05 | 5.23 ± 1.35 | 0.52 ± 0.65 | 
5 | O=c1c(-c2ccc(O)cc2)coc2c(C3OC(COC4OCC(O)(CO)C4O)C(O)C(O)C3O)c(O)cc(O)c12 (stereo not shown) [Compound 6, genistein 8-C-apiofuranosyl(1,6)glucoside] |  | 168 ± 33.6 | 96.3 ± 105 | 98.8 ± 24.8 | 11.3 ± 1.8 | 5.57 ± 3.48 | 0.73 ± 0.3 | 11.3 ± 3.32 | 6.77 ± 3.44 | 8.39 ± 0.23 | 12.1 ± 7.87 | 2.15 ± 1.7 | 1.56 ± 1.53 | 
6 | O=c1c(-c2ccc(O)cc2)coc2c([C@@H]3O[C@H](CO)[C@@H](O)[C@H](O)[C@H]3O)c(O)ccc12 [Compound 7, puerarin] | higher | 5020 ± 536 | 5610 ± 279 | 8610 ± 766 | 488 ± 23.9 | 6.36 ± 4.39 | 0.59 ± 0.01 | 577 ± 56.3 | 5.58 ± 2.9 | 1.2 ± 1.49 | 416 ± 232 | 8.29 ± 2.22 | 0.52 ± 0.07 | AUC(0-t) (plasma, po, 9.45 g/kg, Ge-Gen group: rats, oral 9.45 g/kg, plasma, read-out: AUClast): 5020 ± 536 ng·h/mL
7 | COc1c(O)cc(O)c2c(=O)cc(-c3ccccc3)oc12 [Compound 8, wogonin] |  |  | 156 ± 73.4 | 282 ± 11.3 |  |  |  | 12.9 ± 7.39 | 6.63 ± 2.38 | 7.89 ± 0.99 | 10.2 ± 6.81 | 5.64 ± 1.09 | 8 ± 2.12 | AUC(0-t) [16]: 473 ± 34.3 ng·h/mL; Cmax [17]: 38 ± 7.22 ng/mL; half-life [18]: 5.45 ± 1.22 h; Tmax [19]: 8.02 ± 2.48 h
8 | COc1c(O)cc2oc(-c3ccccc3)cc(=O)c2c1O [Compound 9, oroxylin A] |  |  |  |  |  |  |  |  |  |  |  |  |  | Cmax (in vivo, po, 3.54 g/kg): 43.6 ± 3.04 ng/mL; Tmax (in vivo, po, 3.54 g/kg): 0.08 ± 0.53 h; half-life (in vivo, po, 3.54 g/kg): 5.29 ± 2.33 h; AUC(0-t) (in vivo, po, 3.54 g/kg, AUClast): 351 ± 174 ng·h/mL
9 | O=c1cc(-c2ccccc2)oc2cc(O)c(O)c(O)c12 [Compound 12, baicalein] |  |  |  | 108 ± 47 |  |  |  | 11.1 ± 0.66 | 7.57 ± 0.21 | 0.42 ± 0.03 |  |  |  | AUC(0-t) [16]: 19.5 ± 11.2 ng·h/mL; Cmax [17]: 3.46 ± 0.34 ng/mL; half-life [18]: 5.99 ± 1.23 h; Tmax [19]: 1 ± 0.64 h

From paper PMC6018403 (Frontiers in Pharmacology, 2018)
